The results in this text go back to patent US9877969B2, “Treatments with triazines” (CEVA SANTE ANIMALE, priority 2012, dated 2018).

Common to all, as to assay type: in vivo
A short description of series [1]: Local and general tolerance in 2-day-old piglets (Example B). The settings on record: all tested doses (i.m. 20 and 40 mg/kg). The method, then: (§1) • Group 1: 10 piglets 2 days old were injected with one intramuscular dose of toltrazuril C629 (dose=20 mg toltrazuril per kg body weight equivalent to 0.4 mL/Kg body weight) on SD0. • Group 2: 11 piglets 2 days old were injected with one intramuscular dose of toltrazuril C629 (dose=40 mg toltrazuril per kg body weight equivalent to 0.8 mL/kg body weight) on SD0. • Group 3: 9 piglets 2 days old were dosed orally with the standard commercial formulation of toltrazuril, Cevazuril® (dose=20 mg toltrazuril per kg body weight equivalent to 0.4 mL/Kg body weight) on SD0. • Group 4: 8 piglets, left untreated.
(§2) All four (4) groups of piglets were injected on SD0 with iron injection (Gleptosil®) at the dose rate of 1 ml per piglet. 3 days after treatment (on SD3), the piglets were orally challenged with a characterized strain of Isospora suis.
(§3) The following study parameters were used to assess the efficacy of the test products: • Local and general tolerance (for Groups 1 and 2); • Occurrence of diarrhea and fecal consistency; • Oocyst excretion; • Body weight development; and • Serum concentrations of toltrazuril and its metabolite toltrazuril sulfone (e.g., ponazuril) in Groups 1, 2 and 3. Results

Series [2] in a line: Pharmacokinetics: serum concentrations of toltrazuril and toltrazuril sulfone in 2-day-old piglets (Example B). The settings on record: after intramuscular application. On the procedure: as §1, §2, §3
For the next series, the system named is Isospora suis. Kind of series: Anti-coccidial efficacy in piglets orally challenged with Isospora suis (Example B). Conditions: single i.m. 20 or 40 mg/kg (G1, G2). The method, then: as §1, §2, §3
Series [3] in a line: Local and general tolerance of a single intramuscular injection in 3-day-old piglets (Example A). The method, then: (§4) This target animal safety and efficacy study was conducted on a farm with a known history of cocciodiosis. The main objective was to study the safety and efficacy of intramuscular injection of toltrazuril in comparison to the standard oral application. • Group 1: 8 piglets 3 days old were injected by a single intramuscular dose of toltrazuril (dose=20 mg toltrazuril per kg body weight equivalent to 0.4 mL/kg body weight) on SD0. • Group 2: 8 piglets 3 days old were injected by one intramuscular dose of toltrazuril (60 mg toltrazuril per kg body weight equivalent to 1.2 mL/Kg body weight) on SD0. • Group 3: 8 piglets 3 days old were dosed orally with the standard commercial formulation of toltrazuril, Cevazuril® (dose=20 mg toltrazuril per kg body weight equivalent to 0.4 mL/Kg body weight) on SD0. • Group 4: 12 piglets 3 days old, left untreated.
(§5) All four (4) groups of piglets were injected on SD0 with iron (Gleptosil®) at the dose rate of 1 ml per piglet.
(§6) The local and general tolerances, as well as body weight development, were assessed.

Series [4] in a line: Body weight development of piglets on a farm with a known history of coccidiosis (Example A). The method, then:
as §4, §5, §6

Take `Cc1cc(-n2c(=O)[nH]c(=O)n(C)c2=O)ccc1Oc1ccc(SC(F)(F)F)cc1` [toltrazuril]: the Tolerance result in series [1] is on record as “well tolerated”. Besides, in series [2], the Absorption result is “well absorbed”. In the series on Isospora suis (Isospora suis challenge on SD3), the Fecal consistency result was “unchanged” and the Oocyst excretion result is listed as “No oocyst excretion”. For the same compound, the “Weight gain versus control animals (G4)” value in the series on Isospora suis (infected animals) is “gained more weight than the control animals”. Further, the “Time to disappearance of local reaction (edema) post injection” value in series [3] (intramuscular 1.2 mL/Kg body weight) is given as “less than 1 week”. The Local reaction entry in series [3] (intramuscular 1.2 mL/Kg body weight (60 mg/kg)) is “limited local reaction (edema) in some piglets”. The General tolerance result in series [3] (single intramuscular doses up to 60 mg/kg, 3-day-old piglets) is “well tolerated”. For the same compound, in series [3] (single intramuscular injection, 3-day-old piglets), the Pain at injection result was “No pain”. Moreover, in series [4] (intramuscularly treated piglets, at SD0+29 days), the “Weight gain versus control non-treated piglets” value was “+2 kg”. In series [4] (treated piglets), the Body weight development result was “normal”.
